In assay [1] the target is Cbl-b (Homo sapiens (Human), UniProt Q13191). Put plainly: Cbl-b LCK Ub TR-FRET assay (Cbl-b Lck HTRF). In kind it is biochemical. The settings on record: for IC50: Cbl-b LCK Ub TR-FRET, Example 121; for (fold-selectivity) Cbl-b and C-Cbl Selectivity: ratio C-cbl Lck HTRF IC50 / Cbl-b Lck HTRF IC50. The method in brief:
(§1)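 Signal is read once the detection mix has stood 20 min at ambient temperature. Curves are anchored by DMSO as maximum and by omission of LCK as minimum.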
Background: TR-FRET usually uses a lanthanide donor and a delayed reading to cut background.

The target of assay [2] is c-Cbl (Homo sapiens (Human), UniProt P22681). Put plainly: C-Cbl LCK Ub TR-FRET assay (C-cbl Lck HTRF). Format: biochemical. The essentials:
as §1

Assay [3] deals with Human Cbl-b (residues 40-426) (Homo sapiens (Human), UniProt Q13191). Put plainly: Cbl-b SPR assay. Format: binding. Conditions: for Fold of selectivity: C-cbl SPR Kd vs Cbl-b SPR Kd; for Kd: SPR, 20° C. The method in brief: (§2)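 Binding was measured by SPR and fitted to a 1:1 model from multi-cycle kinetics with double referencing, 6 concentrations in 2-fold dilution. Alternatively, single-cycle titrations up to 500 nM (120 s contact) were fitted with kd fixed from a single-exponential fit of chaser-measured % compound bound versus time.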
A general note: Surface plasmon resonance follows binding to a sensor surface in real time, without labels.

Assay [4] has as its target c-Cbl (residues 47-435) (Homo sapiens (Human), UniProt P22681). Put plainly: c-Cbl SPR assay. In kind it is binding. The settings on record: 20° C. The essentials: as §2

c-Cbl, sequence (P22681 47-435): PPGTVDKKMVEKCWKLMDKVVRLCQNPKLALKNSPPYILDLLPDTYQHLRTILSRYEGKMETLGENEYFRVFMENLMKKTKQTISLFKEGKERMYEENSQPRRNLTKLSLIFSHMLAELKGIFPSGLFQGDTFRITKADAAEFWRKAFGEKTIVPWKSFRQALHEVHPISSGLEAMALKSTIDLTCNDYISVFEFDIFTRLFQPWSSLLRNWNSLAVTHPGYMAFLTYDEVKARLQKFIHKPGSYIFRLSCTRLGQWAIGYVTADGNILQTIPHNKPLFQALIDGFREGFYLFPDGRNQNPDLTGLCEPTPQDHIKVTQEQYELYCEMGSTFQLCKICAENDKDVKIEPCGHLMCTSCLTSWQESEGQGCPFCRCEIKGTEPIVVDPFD
c-Cbl (residues 47-435), sequence (P22681 47-435): as above
Human Cbl-b (residues 40-426), sequence (Q13191 40-426): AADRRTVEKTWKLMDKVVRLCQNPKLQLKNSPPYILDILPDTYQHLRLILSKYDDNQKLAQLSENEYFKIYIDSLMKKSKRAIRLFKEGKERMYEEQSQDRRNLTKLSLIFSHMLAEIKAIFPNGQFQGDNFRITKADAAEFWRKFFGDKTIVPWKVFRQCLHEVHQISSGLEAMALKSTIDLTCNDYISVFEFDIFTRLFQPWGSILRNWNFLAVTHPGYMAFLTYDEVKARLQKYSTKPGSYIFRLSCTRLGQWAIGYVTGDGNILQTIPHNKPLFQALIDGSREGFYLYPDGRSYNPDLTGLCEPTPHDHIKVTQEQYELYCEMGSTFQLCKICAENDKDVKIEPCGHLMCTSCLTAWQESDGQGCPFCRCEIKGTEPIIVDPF
Cbl-b, sequence (Q13191 40-426): as above

Consider `CO[C@H]1C[C@](c2cccc(N3Cc4c(cc(CN5CC(C)(O)C5)cc4C(F)(F)F)C3=O)c2)(c2nncn2C)C1` [Compound 478, 6-((3-hydroxy-3-methylazetidin-1-yl)methyl)-2-(3-((1r,3r)-3-methoxy-1-(4-methyl-4H-1,2,4-triazol-3-yl)cyclobutyl)phenyl)-4-(trifluoromethyl)isoindolin-1-one], for which, in assay [1], the half-inhibitory concentration (IC50) worked out at 130 nM; the “(fold-selectivity) Cbl-b and C-Cbl Selectivity” value was 6.4x. The same compound came in with an IC50 in assay [2] of 840 nM. In assay [3], this compound came in with a Fold of selectivity of 8.7× and a Kd of 120 nM. Also, in assay [4], the Kd came to 1100 nM.

With `CO[C@H]1C[C@](c2cccc(N3Cc4c(cc(CN5CCC5)cc4C(F)(F)F)C3=O)c2)(c2nncn2C)C1` [Compound 480, 6-(azetidin-1-ylmethyl)-2-(3-((1r,3r)-3-methoxy-1-(4-methyl-4H-1,2,4-triazol-3-yl)cyclobutyl)phenyl)-4-(trifluoromethyl)isoindolin-1-one], in assay [1], the midpoint of inhibition, the IC50, lay at 34 nM; the “(fold-selectivity) Cbl-b and C-Cbl Selectivity” value is reported as 7.9x. In addition, 280 nM corresponded to half-maximal inhibition in assay [2] (IC50). In assay [3], the Fold of selectivity was 11× and binding was characterised by a dissociation constant (Kd) of 45 nM. Also, in assay [4], binding was characterised by a dissociation constant (Kd) of 490 nM.

Take `CO[C@H]1C[C@](c2cccc(N3Cc4c(cc(CNCC(C)(C)C)cc4C(F)(F)F)C3=O)c2)(c2nncn2C)C1` [Compound 481, 2-(3-((1r,3r)-3-methoxy-1-(4-methyl-4H-1,2,4-triazol-3-yl)cyclobutyl)phenyl)-6-((neopentylamino)methyl)-4-(trifluoromethyl)isoindolin-1-one]: in assay [1], the IC50 amounted to 6.2 nM; the “(fold-selectivity) Cbl-b and C-Cbl Selectivity” value was found to be 4.0x. This compound gave an IC50 in assay [2] of 25 nM. Moreover, in assay [3], the Fold of selectivity was 18× and the Kd turned out to be 1.5 nM. Moreover, the Kd in assay [4] stood at 27 nM.

As for `CO[C@H]1C[C@](c2cccc(N3Cc4c(cc(CNCC5CC5(F)F)cc4C(F)(F)F)C3=O)c2)(c2nncn2C)C1` (stereo partly drawn) [Compound 482, 6-((((2,2-difluorocyclopropyl)methyl)amino)methyl)-2-(3-((1r,3r)-3-methoxy-1-(4-methyl-4H-1,2,4-triazol-3-yl)cyclobutyl)phenyl)-4-(trifluoromethyl)isoindolin-1-one], in assay [1], 5.3 nM corresponded to half-maximal inhibition (IC50); the “(fold-selectivity) Cbl-b and C-Cbl Selectivity” value came out at 3.7x. It took 20 nM to reach half-maximal inhibition in assay [2] (IC50). In assay [3], the Fold of selectivity was found to be 15× and the Kd amounted to 1.9 nM. In assay [4], this compound had a Kd of 30 nM.

For `CO[C@H]1C[C@](c2cccc(N3Cc4c(cc(CNCC(C)(C)F)cc4C(F)(F)F)C3=O)c2)(c2nncn2C)C1` [Compound 483, 6-(((2-fluoro-2-methylpropyl)amino)methyl)-2-(3-((1r,3r)-3-methoxy-1-(4-methyl-4H-1,2,4-triazol-3-yl)cyclobutyl)phenyl)-4-(trifluoromethyl)isoindolin-1-one], in assay [1], the IC50 came out at 10 nM; the “(fold-selectivity) Cbl-b and C-Cbl Selectivity” value was 5.8x. The compound further displayed an IC50 in assay [2] of 58 nM. In assay [3], this compound registered a Fold of selectivity of 18× and a Kd of 4.6 nM. The same compound had a Kd in assay [4] of 84 nM.

For the compound `CO[C@H]1C[C@](c2cccc(N3Cc4c(cc(CN[C@]5(C)C[C@H](O)C5)cc4C(F)(F)F)C3=O)c2)(c2nncn2C)C1` [Compound 484, 6-((((1s,3S)-3-hydroxy-1-methylcyclobutyl)amino)methyl)-2-(3-((1r,3R)-3-methoxy-1-(4-methyl-4H-1,2,4-triazol-3-yl)cyclobutyl)phenyl)-4-(trifluoromethyl)isoindolin-1-one], in assay [1], it took 26 nM to reach half-maximal inhibition (IC50); the “(fold-selectivity) Cbl-b and C-Cbl Selectivity” value turned out to be 10x. Also, in assay [2], the concentration for half-maximal inhibition (IC50) amounted to 260 nM. In addition, in assay [3], the Fold of selectivity is on record as 13× and the Kd was 13 nM. In addition, in assay [4], binding was characterised by a dissociation constant (Kd) of 200 nM.

Consider `CO[C@H]1C[C@](c2cccc(N3Cc4c(cc(CNC56CC(C5)C6)cc4C(F)(F)F)C3=O)c2)(c2nncn2C)C1` [Compound 485, 6-((bicyclo[1.1.1]pentan-1-ylamino)methyl)-2-(3-((1r,3r)-3-methoxy-1-(4-methyl-4H-1,2,4-triazol-3-yl)cyclobutyl)phenyl)-4-(trifluoromethyl)isoindolin-1-one], for which, in assay [1], the IC50 was 13 nM; the “(fold-selectivity) Cbl-b and C-Cbl Selectivity” value worked out at 5.2x. The same compound showed an IC50 in assay [2] of 67 nM. In assay [3], this compound had a Fold of selectivity of 14× and a Kd of 7.4 nM. This compound displayed a Kd in assay [4] of 110 nM.

In the case of `CO[C@H]1C[C@](c2cccc(N3Cc4c(cc(CNCC5(F)CC5)cc4C(F)(F)F)C3=O)c2)(c2nncn2C)C1` [Compound 486, 6-((((1-fluorocyclopropyl)-methyl)amino)methyl)-2-(3-((1r,3r)-3-methoxy-1-(4-methyl-4H-1,2,4-triazol-3-yl)cyclobutyl)phenyl)-4-(trifluoromethyl)isoindolin-1-one], in assay [1], the IC50 stood at 18 nM; the “(fold-selectivity) Cbl-b and C-Cbl Selectivity” value is given as 6.0x. The IC50 in assay [2] stood at 110 nM. In assay [3], this compound displayed a Fold of selectivity of 11× and a Kd of 8.2 nM. Further, the dissociation constant (Kd) in assay [4] worked out at 98 nM.

For `COCC1(NCc2cc3c(c(C(F)(F)F)c2)CN(c2cccc([C@]4(c5nncn5C)C[C@H](OC)C4)c2)C3=O)CC1` [Compound 487, 2-(3-((1r,3r)-3-methoxy-1-(4-methyl-4H-1,2,4-triazol-3-yl)cyclobutyl)phenyl)-6-(((1-(methoxymethyl)cyclopropyl)amino)methyl)-4-(trifluoromethyl)isoindolin-1-one], in assay [1], the IC50 was 19 nM; the “(fold-selectivity) Cbl-b and C-Cbl Selectivity” value stood at 7.4x. The same compound had an IC50 in assay [2] of 150 nM. Moreover, in assay [3], the Fold of selectivity turned out to be 41× and the affinity, expressed as Kd, was 4.9 nM. In assay [4], this compound gave a Kd of 210 nM.

For the compound `CO[C@H]1C[C@](c2cccc(N3Cc4c(cc(CNC5CC(C)(C)C5)cc4C(F)(F)F)C3=O)c2)(c2nncn2C)C1` [Compound 488, 6-(((3,3-dimethylcyclobutyl)amino)methyl)-2-(3-((1r,3r)-3-methoxy-1-(4-methyl-4H-1,2,4-triazol-3-yl)cyclobutyl)phenyl)-4-(trifluoromethyl)isoindolin-1-one], the IC50 in assay [1] was found to be 5.8 nM; in assay [2], 14 nM. Further, in assay [1], the “(fold-selectivity) Cbl-b and C-Cbl Selectivity” value came to 2.4x. This compound also came in with a Fold of selectivity in assay [3] of 13×. Moreover, the Kd amounted to 1 nM in assay [3] and 13 nM in assay [4].

As to `CO[C@H]1C[C@](c2cccc(N3Cc4c(cc(CNCC5(CO)CCC5)cc4C(F)(F)F)C3=O)c2)(c2nncn2C)C1` [Compound 489, 6-((((1-(hydroxymethyl)cyclobutyl)methyl)amino)methyl)-2-(3-((1r,3r)-3-methoxy-1-(4-methyl-4H-1,2,4-triazol-3-yl)cyclobutyl)phenyl)-4-(trifluoromethyl)isoindolin-1-one], in assay [1], the IC50 stood at 14 nM; the “(fold-selectivity) Cbl-b and C-Cbl Selectivity” value was found to be 5.3x. Moreover, the IC50 in assay [2] was determined as 74 nM. In assay [3], this compound came in with a Fold of selectivity of 7.8× and a Kd of 6.2 nM. Binding in assay [4] was put at a Kd of 48 nM.

For `CO[C@H]1C[C@](c2cccc(N3Cc4c(cc(CN5CCCCCC5)cc4C(F)(F)F)C3=O)c2)(c2nncn2C)C1` [Compound 490, 6-(azepan-1-ylmethyl)-2-(3-((1r,3r)-3-methxoy-1-(4-methyl-4H-1,2,4-triazol-3-yl)cyclobutyl)phenyl)-4-(trifluoromethyl)isoindolin-1-one], the IC50 is 55 nM in assay [1] and 270 nM in assay [2]. Further, in assay [1], the “(fold-selectivity) Cbl-b and C-Cbl Selectivity” value turned out to be 5.0 x. In assay [3], this compound gave a Fold of selectivity of 14×. Further, the results for the dissociation constant Kd in assay [3] and in assay [4] were 32 nM and 480 nM, respectively.

Consider `CO[C@H]1C[C@](c2cccc(N3Cc4c(cc(CNCCOC(F)F)cc4C(F)(F)F)C3=O)c2)(c2nncn2C)C1` [Compound 491, 6-(((2-(difluoromethoxy)ethyl)amino)methyl)-2-(3-((1r,3r)-3-methoxy-1-(4-methyl-4H-1,2,4-triazol-3-yl)cyclobutyl)phenyl)-4-(trifluoromethyl)isoindolin-1-one], for which, in assay [1], the IC50 turned out to be 8.4 nM; the “(fold-selectivity) Cbl-b and C-Cbl Selectivity” value is 4.3x. Besides, in assay [2], the midpoint of inhibition, the IC50, lay at 36 nM. In assay [3], this compound yielded a Fold of selectivity of 17× and a Kd of 2.9 nM. The same compound came in with a Kd in assay [4] of 48 nM.

On to `CO[C@H]1C[C@](c2cccc(N3Cc4c(cc(CN[C@H]5[C@@H]6COC[C@@H]65)cc4C(F)(F)F)C3=O)c2)(c2nncn2C)C1` [Compound 492, 6-(((1R,5S,6r)-3-oxabicyclo[3.1.0]hexan-6-ylamino)methyl)-2-(3-((1r,3R)-3-methoxy-1-(4-methyl-4H-1,2,4-triazol-3-yl)cyclobutyl)phenyl)-4-(trifluoromethyl)isoindolin-1-one], for which the IC50 in assay [1] worked out at 14 nM; in assay [2] it was 87 nM. Moreover, the “(fold-selectivity) Cbl-b and C-Cbl Selectivity” value in assay [1] was 6.2x. This compound showed a Fold of selectivity in assay [3] of 15×. Also, the Kd turned out to be 12 nM in assay [3] and 180 nM in assay [4].

Consider `COCCC1(NCc2cc3c(c(C(F)(F)F)c2)CN(c2cccc([C@]4(c5nncn5C)C[C@H](OC)C4)c2)C3=O)CCC1` [Compound 493, 2-(3-((1r,3r)-3-methoxy-1-(4-methyl-4H-1,2,4-triazol-3-yl)cyclobutyl)phenyl)-6-(((1-(2-methoxyethyl)cyclobutyl)amino)methyl)-4-(trifluoromethyl)isoindolin-1-one], for which, in assay [1], it took 28 nM to reach half-maximal inhibition (IC50); the “(fold-selectivity) Cbl-b and C-Cbl Selectivity” value stood at 8.5x. For the same compound, in assay [2], the IC50 is 230 nM. Also, in assay [3], the Fold of selectivity came to 7.8× and the Kd stood at 18 nM. In assay [4], this compound yielded a Kd of 140 nM.

A word on the IC50: it is the concentration at which inhibition is half-maximal. The Kd is the constant that tells how readily two partners part at equilibrium. Lower therefore signals tighter binding.

These data come from patent US12187709B2 (Genentech, Inc., priority 2021, dated 2025).
